According to US20250206714A1, “COMPOSITIONS AND METHODS FOR TREATMENT OF INFLAMMATORY DISEASES” (Invea Therapeutics, Inc., priority 2022, published 2025):
“Also recorded” adds a separate entry of the source.

What was measured:
IL-1β [1] = test: In vitro inhibition of production of IL-1β in PMA-differentiated THP-1 cells (LPS + ATP, ELISA); assay type: cell-based, Human; conditions: THP-1 derived macrophages
Procedure: The procedures detailed here can be utilized for testing all compounds of the disclosure.
Human monocytic THP-1 cells were treated with phorbol 12-myristate 13 acetate (PMA) (100 nM) overnight to differentiate monocytic cells into macrophages. Then, after 24 hours of rest, the differentiated cells were incubated with test compounds for 12 hours at concentrations 0.01, 0.1, 1, 10, 30, and 50 μM. Cells were then washed once with PBS and primed with E. coli LPS (0.1 μg/ml) for 4 h followed by stimulation with ATP (5 μM) for an additional 30 min. The cell culture supernatants were then collected and OD values for IL-1β levels were measured by ELISA. The standard curve (OD VS concentration) for IL-1β was also plotted and used to determine the IL-1β concentration for the OD values. The percentage of inhibition of IL-1β was calculated using the formula: […]
The percentage IL-1β inhibition at different compound concentrations were plotted in a sigmoid curve and IC50 values were interpolated in Graphpad Prism. Cell death was evaluated by propidium iodide staining and OD was measured at 490 nm. Cell viability was estimated with respect to DMSO control.

IL-1β [2] = test: LPS+ATP-induced model of inflammasome activation, plasma IL-1β by ELISA; assay type: in vivo, Balb/c mice; conditions: for % IL-1 β inhibition: mice plasma
Procedure: The procedures detailed here can be utilized for testing all compounds of the disclosure. The example utilizes LPS+ATP-induced model of inflammasome activation in 8-10 weeks old male Balb/c mice for in vivo testing.
8-10 weeks old male Balb/c mice were challenged by intraperitoneal (i.p.) injection of 200 μg/Kg (0.2 μg/g) LPS at t=0 hr, followed by i.p. injection of 5 mM solution of ATP at t=2 hr (2 h after LPS challenge). The compound of disclosure being tested for inhibitory activity (such as Compound 6) was administered both via intraperitoneal and oral route at −1 hr. Different doses of the compound of the disclosure were given to the mice […] as shown below.
MCC950, a specific small molecule inhibitor of NLRP3 inflammasome was used as a positive control to enable comparison of inhibitory activity of the compounds of the disclosure along with a known inhibitor. 2.5 hours after the LPS priming (or 0.5 hours after ATP administration), blood was collected via retro-orbital bleeding in heparinized blood collection tubes. Blood was centrifuged for 5 minutes at 10,000 rpm in a refrigerated centrifuge to obtain plasma. Separated plasma was used for cytokine assessment by ELISA. The standard curve (OD VS concentration) for IL-1β was also plotted and used to determine the IL-1β concentration for the OD values. The percentage of inhibition of IL-1β was calculated using the formula: […]

CYP2D6 = target: T1, CYP2D6 (Homo sapiens, UniProt P10635); test: Metabolic stability in human liver microsomes with CYP 2D6 inhibitor Quinidine; assay type: in vitro ADME; conditions: 1 μM + Quinidine (20 μM)
T1 construct: The experiment was conducted in human liver microsomes; from tissue; host or cells: human liver microsomes

CYP 2C9 = target: T2, CYP 2C9 (Homo sapiens, UniProt P11712); test: Metabolic stability in human liver microsomes with CYP 2C9 inhibitor Sulfaphenazole; assay type: in vitro ADME; conditions: 1 μM + Sulfaphenazole (20 μM)
T2 construct: The experiment was conducted in human liver microsomes; from tissue; host or cells: human liver microsomes

CYP 1A2 = target: T3, CYP 1A2 (Homo sapiens, UniProt P05177); test: Metabolic stability in human liver microsomes with CYP 1A2 inhibitor Furafylline; assay type: in vitro ADME; conditions: 1 μM + Furafylline (20 μM)
T3 construct: The experiment was conducted in human liver microsomes; from tissue; host or cells: human liver microsomes
T3 sequence (P05177 1-516): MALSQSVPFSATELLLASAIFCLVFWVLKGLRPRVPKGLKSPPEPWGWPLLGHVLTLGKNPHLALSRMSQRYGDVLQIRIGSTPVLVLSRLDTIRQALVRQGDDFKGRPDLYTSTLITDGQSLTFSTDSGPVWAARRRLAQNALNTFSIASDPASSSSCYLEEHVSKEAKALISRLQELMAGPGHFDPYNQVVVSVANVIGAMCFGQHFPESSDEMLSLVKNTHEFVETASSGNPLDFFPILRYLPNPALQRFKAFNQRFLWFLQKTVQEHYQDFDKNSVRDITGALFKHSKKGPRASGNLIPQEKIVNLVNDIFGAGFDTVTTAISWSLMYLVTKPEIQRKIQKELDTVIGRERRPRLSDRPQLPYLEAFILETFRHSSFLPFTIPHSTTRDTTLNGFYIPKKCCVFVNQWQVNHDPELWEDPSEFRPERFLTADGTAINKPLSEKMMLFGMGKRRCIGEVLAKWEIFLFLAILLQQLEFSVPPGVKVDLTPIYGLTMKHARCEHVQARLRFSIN

MDR1 (P-gp) = test: in vitro; design: Papp A→B at 60 min / Papp B→A at 60 min / efflux ratio at 60 min / recovery at 60 min / % recovery Apical concentration-Basal concentration / % recovery Basal concentration-Apical concentration: dose or concentration left out as unconfirmed; conditions: dog
Procedure: (§1) Digoxin is used as reference and lucifer yellow is used as the integrity marker. […] Papp, efflux ratio and percent recovery are calculated.

MDR1 = test: in vitro; design: Papp A→B at 60 min / Papp B→A at 60 min / efflux ratio at 60 min / recovery at 60 min / % recovery Apical concentration-Basal concentration / % recovery Basal concentration-Apical concentration: dose or concentration left out as unconfirmed; conditions: dog, MDCK-MDR1
Procedure: as §1

CYP 3A4 = CYP 3A4 (Homo sapiens, UniProt P08684); test: Metabolic stability in human liver microsomes with CYP 3A4 inhibitor Ketoconazole; conditions: 1 μM + Ketoconazole (20 μM)
[3] = Metabolic stability assay in human liver microsomes in the presence of specific cytochrome P450 inhibitors (arm without inhibitor, summary statements)
[4] = human liver microsomes, 1 μM, no inhibitor
[5] = human, human liver microsomes, pH 7.4

T2 sequence (P11712 whole entry): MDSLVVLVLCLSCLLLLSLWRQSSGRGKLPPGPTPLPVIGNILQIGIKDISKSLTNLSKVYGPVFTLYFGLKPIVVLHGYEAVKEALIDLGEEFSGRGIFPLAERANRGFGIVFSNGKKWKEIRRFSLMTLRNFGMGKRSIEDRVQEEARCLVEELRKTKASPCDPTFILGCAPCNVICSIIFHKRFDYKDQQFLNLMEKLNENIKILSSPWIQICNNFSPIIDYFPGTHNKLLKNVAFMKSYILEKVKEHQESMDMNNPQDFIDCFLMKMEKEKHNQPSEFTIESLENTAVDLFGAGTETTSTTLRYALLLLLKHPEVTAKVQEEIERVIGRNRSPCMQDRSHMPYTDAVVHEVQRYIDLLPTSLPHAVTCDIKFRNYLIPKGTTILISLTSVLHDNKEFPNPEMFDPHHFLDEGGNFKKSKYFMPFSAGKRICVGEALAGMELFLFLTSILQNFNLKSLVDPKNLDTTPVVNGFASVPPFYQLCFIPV
T1 sequence (P10635 whole entry): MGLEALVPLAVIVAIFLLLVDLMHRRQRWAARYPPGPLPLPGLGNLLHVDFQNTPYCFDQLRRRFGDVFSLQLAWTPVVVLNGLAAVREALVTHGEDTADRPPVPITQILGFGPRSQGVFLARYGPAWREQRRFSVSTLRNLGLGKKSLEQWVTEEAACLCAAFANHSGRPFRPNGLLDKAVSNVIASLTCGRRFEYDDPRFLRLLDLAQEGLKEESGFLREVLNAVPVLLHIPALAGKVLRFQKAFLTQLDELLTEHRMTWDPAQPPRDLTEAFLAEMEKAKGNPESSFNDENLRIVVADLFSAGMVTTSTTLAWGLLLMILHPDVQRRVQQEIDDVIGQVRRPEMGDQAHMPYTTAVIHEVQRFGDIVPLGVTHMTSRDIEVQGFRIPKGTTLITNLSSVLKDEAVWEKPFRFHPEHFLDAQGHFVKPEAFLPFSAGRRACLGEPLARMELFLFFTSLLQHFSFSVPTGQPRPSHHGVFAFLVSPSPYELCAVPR
Chain of CYP 3A4 (P08684 whole entry): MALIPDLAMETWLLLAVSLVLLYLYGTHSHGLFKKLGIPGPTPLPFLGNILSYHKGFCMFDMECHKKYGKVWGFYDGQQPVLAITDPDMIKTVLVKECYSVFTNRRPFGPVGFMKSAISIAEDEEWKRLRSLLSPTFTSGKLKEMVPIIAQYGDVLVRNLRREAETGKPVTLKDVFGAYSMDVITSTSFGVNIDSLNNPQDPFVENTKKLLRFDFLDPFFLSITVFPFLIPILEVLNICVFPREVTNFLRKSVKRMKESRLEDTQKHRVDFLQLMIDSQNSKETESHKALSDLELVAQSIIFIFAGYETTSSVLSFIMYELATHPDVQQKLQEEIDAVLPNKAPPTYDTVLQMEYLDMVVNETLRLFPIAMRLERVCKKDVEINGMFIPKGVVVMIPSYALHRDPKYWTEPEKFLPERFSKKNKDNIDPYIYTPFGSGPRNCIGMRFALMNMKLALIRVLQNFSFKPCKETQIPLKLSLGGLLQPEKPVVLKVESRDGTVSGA

## O=C1Nc2ccccc2N(C(=O)CCl)c2ccc(F)cc21 [Compound 6, 5-(2-chloroacetyl)-2-fluoro-5,10-dihydro-11H-dibenzo[b,e][1,4]diazepin-11-one]
IL-1β [1]
  IL-1β levels under in vitro conditions (FIG. 3, percentage of cytokine inhibition against concentration): dose dependent decrease in IL-1β levels
IL-1β [2]; 1 mg/kg, Intraperitoneal
  % IL-1 β inhibition: 52%
IL-1β [2]; 10 mg/kg, Intraperitoneal
  % IL-1 β inhibition: 79%
IL-1β [2]; 10 mg/kg, Oral
  % IL-1 β inhibition: 46%
IL-1β [2]; escalating doses, LPS+ATP mice model
  plasma IL-1β levels under in vivo conditions (FIG. 4, in words): dose dependent reduction of IL-β; also recorded: dose dependent decrease in IL-1β levels
CYP2D6
  % rem @ 5 min: 80.8%
  % rem @ 15 min: 67.3%
  % rem @ 30 min: 57.4%
  % rem @ 45 min: 60.1%
CYP2D6; pH 7.4, with quinidine 20 µM
  half-life at 1 µM: 1.07 h
CYP2D6; pH 7.4, with quinidine 20 µM, read-out: mCLint
  microsomal CLint at 1 μM: 21.6 µL/min/mg
CYP 2C9
  % rem @ 5 min: 69.7%
  % rem @ 15 min: 63.3%
  % rem @ 30 min: 73.8%
  % rem @ 45 min: 54.3%
CYP 2C9; pH 7.4, with Sulfaphenazole 20 μM
  half-life at 1 µM: 1.28 h
CYP 2C9; pH 7.4, with Sulfaphenazole 20 μM, read-out: mCLint
  microsomal CLint at 1 μM: 18 µL/min/mg
CYP 1A2
  % rem @ 5 min: 96.8%
  % rem @ 15 min: 87.7%
  % rem @ 30 min: 66.9%
  % rem @ 45 min: 63.2%
CYP 1A2; pH 7.4, with Furafylline 20 μM
  half-life at 1 µM: 1.03 h
CYP 1A2; pH 7.4, with Furafylline 20 μM, read-out: mCLint
  microsomal CLint at 1 μM: 22.5 µL/min/mg
MDR1 (P-gp); MDCK-MDR1
  efflux ratio at 60 min: 1.22
MDR1 (P-gp); MDCK-MDR1, % recovery Apical concentration-Basal concentration
  recovery at 60 min: 49.1%
MDR1 (P-gp); MDCK-MDR1, % recovery Basal concentration-Apical concentration
  recovery at 60 min: ~100%
MDR1
  Papp A→B at 60 min: 26 ×10⁻⁶ cm/s
  Papp A→B at 60 min, 5 µM: 26 ×10⁻⁶ cm/s
  Papp B→A at 60 min: 31.6 ×10⁻⁶ cm/s
  efflux ratio at 60 min, 5 µM: < 2
CYP 3A4
  % rem @ 5 min: 81.9%
  % rem @ 15 min: 81.5%
  % rem @ 30 min: 61.8%
  % rem @ 45 min: 52.9%
[3]; human liver microsomes
  stability in human liver microsomes (in words): medium to highly stability
[3]; human liver microsomes, in presence of specific CYP inhibitors
  degradation: 40-45%
[3]; [4]
  % rem @ 5 min: 93.5%
  % rem @ 15 min: 92.9%
  % rem @ 30 min: 91.3%
  % rem @ 45 min: 67.8%
[3]; [5]
  half-life at 1 µM: 1.6 h
  microsomal CLint at 1 μM: 14.4 µL/min/mg
[3]; incubated in human liver microsomes, no inhibitor
  degradation: ~35%
